In ChEMBL document CHEMBL4811307, “Design, synthesis and biological evaluation of dual Bcl-2/Mcl-1 inhibitors bearing 2-(1H-indol-4-yl)benzoic acid scaffold” (Bioorg Med Chem Lett, 2021):

Experiments:
[1] = biological target: Induced myeloid leukemia cell differentiation protein Mcl-1 (Homo sapiens, UniProt Q07820); experiment: Binding affinity to Mc1-1 (unknown origin) by fluorescence polarization competition assay
[2] = biological target: Bcl-2-like protein 1 (Homo sapiens, UniProt Q07817); experiment: Binding affinity to Bc1-xL (unknown origin) by fluorescence polarization competition assay
Chain of Bcl-2-like protein 1 (Q07817 whole entry): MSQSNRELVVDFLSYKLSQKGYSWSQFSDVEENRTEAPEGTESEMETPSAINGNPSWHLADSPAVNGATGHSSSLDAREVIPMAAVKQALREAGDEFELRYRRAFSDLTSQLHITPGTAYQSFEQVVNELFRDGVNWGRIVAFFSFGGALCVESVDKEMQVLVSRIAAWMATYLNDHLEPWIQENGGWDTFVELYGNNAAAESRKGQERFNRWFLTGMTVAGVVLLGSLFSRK

Chain of Induced myeloid leukemia cell differentiation protein Mcl-1 (Q07820 whole entry): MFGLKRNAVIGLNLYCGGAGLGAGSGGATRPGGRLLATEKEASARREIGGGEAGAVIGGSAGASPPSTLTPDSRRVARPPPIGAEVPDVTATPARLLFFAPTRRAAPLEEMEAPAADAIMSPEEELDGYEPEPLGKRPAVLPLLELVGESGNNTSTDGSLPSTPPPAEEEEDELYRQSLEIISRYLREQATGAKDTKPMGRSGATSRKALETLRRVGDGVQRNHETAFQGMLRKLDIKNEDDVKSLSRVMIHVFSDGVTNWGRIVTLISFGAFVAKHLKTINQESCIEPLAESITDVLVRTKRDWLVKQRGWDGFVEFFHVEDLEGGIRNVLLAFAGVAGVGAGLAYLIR

Structure (SMILES)	Ki [1] [nM]	Ki ([2]; read-out: Ki) [nM]	Ki [2]
COc1ccccc1-c1cn(CCOc2cccc3ccccc23)c2cccc(-c3ccccc3C(=O)O)c12	170	> 200000	
COc1ccccc1-c1cn(Cc2cccc3ccccc23)c2cccc(-c3ccccc3C(=O)O)c12	270	> 200000	
O=C(O)c1ccccc1-c1cccc2c1c(-c1cccc(C(F)(F)F)c1)cn2CCOc1cccc2ccccc12	30	6100	
CC1(C)CCC(CN2CCN(c3ccc(C(=O)NS(=O)(=O)c4ccc(NCC5CCOCC5)c([N+](=O)[O-])c4)c(Oc4cnc5[nH]ccc5c4)c3)CC2)=C(c2ccc(Cl)cc2)C1 [VENETOCLAX]	> 200000		
Cc1cccc(-c2cn(CCOc3cccc4ccccc34)c3cccc(-c4ccccc4C(=O)O)c23)c1C	710	> 200000	
CCc1ccccc1-c1cn(CCOc2cccc3ccccc23)c2cccc(-c3ccccc3C(=O)O)c12	270	> 200000	
Cc1cccc(-c2cn(CCOc3cccc4ccccc34)c3cccc(-c4ccccc4C(=O)O)c23)c1	920	> 200000	
O=C(O)c1ccccc1-c1cccc2c1ccn2CCCOc1cccc2ccccc12	1190		Not Active
Cc1cccc(-c2cn(CCCOc3cccc4ccccc34)c3cccc(-c4ccccc4C(=O)O)c23)c1	1330	> 200000	
Cc1ccccc1-c1cn(CCOc2cccc3ccccc23)c2cccc(-c3ccccc3C(=O)O)c12	170	> 200000	
O=C(O)c1ccccc1-c1cccc2c1c(-c1cccc(Cl)c1)cn2Cc1cccc2ccccc12	450	> 200000	
Cc1ccccc1-c1cn(Cc2cccc3ccccc23)c2cccc(-c3ccccc3C(=O)O)c12	70	> 200000	
Cc1ccc(-c2cn(Cc3cccc4ccccc34)c3cccc(-c4ccccc4C(=O)O)c23)cc1	230	> 200000	
Cc1cccc(-c2cn(Cc3cccc4ccccc34)c3cccc(-c4ccccc4C(=O)O)c23)c1	960	> 200000	
O=C(O)c1ccc(Cl)cc1-c1cccc2c1ccn2CCCOc1cccc2ccccc12	220	2300	
Cc1cc2c(C(C)C)c(O)c(O)c(C=O)c2c(O)c1-c1c(C)cc2c(C(C)C)c(O)c(O)c(C=O)c2c1O [GOSSYPOL]		610	
COc1cccc(-c2cn(Cc3cccc4ccccc34)c3cccc(-c4ccccc4C(=O)O)c23)c1	290	> 200000	
CC(C)c1ccccc1-c1cn(CCOc2cccc3ccccc23)c2cccc(-c3ccccc3C(=O)O)c12	170	> 200000	
O=C(O)c1ccccc1-c1cccc2c1c(-c1cccc(C(F)(F)F)c1)cn2Cc1cccc2ccccc12	190	> 200000	
O=C(O)c1ccccc1-c1cccc2c1c(-c1ccccc1)cn2Cc1cccc2ccccc12	120	> 200000	
O=C(O)c1ccccc1-c1cccc2c1c(-c1cccc(Cl)c1)cn2CCOc1cccc2ccccc12	360	2300	
Cc1ccc(-c2cn(CCOc3cccc4ccccc34)c3cccc(-c4ccccc4C(=O)O)c23)cc1	250	> 200000	
O=C(O)c1ccccc1-c1cccc2c1c(-c1cccc(C(F)(F)F)c1)cn2CCCOc1cccc2ccccc12	280	3100	
